Measurements: ChEMBL document CHEMBL4673282, “Identification of a New Heterocyclic Scaffold for Inhibitors of the Polo-Box Domain of Polo-like Kinase 1” (J Med Chem, 2020)
Converted amounts (≈) assume the structure as drawn. The source made the active and inactive calls. No cut-off for these calls is given here.

How the values were obtained:
[1] = Half life in rat liver microsomes at 1 uM measured up to 60 mins in presence of NADPH generating system; conditions: 1 h
[2] = Aqueous solubility of compound; type: physicochemical; conditions: buffer
in vitro = conditions: PAMPA
Description: Permeability of the compound by PAMPA

[3] = molecular target: Serine/threonine-protein kinase PLK1 (Homo sapiens, UniProt P53350); assay: Inhibition of biotin-Ahx-CETFDPPLHSpTAI-NH2 binding to recombinant human full-length HA-EGFP-tagged Plk1 PBD expressed in HEK293A cells preincubated for 30 mins followed by biotin-Ahx-CETFDPPLHSpTAI-NH2 addition and measured after 1 hr by 3,3',5,5'-tetramethylbenzidine substrate based ELISA; type: cell-based, HEK293-A
[4] = molecular target: Serine/threonine-protein kinase PLK3 (Homo sapiens) (UniProt Q9H4B4); assay: Inhibition of FITC-Ahx-DPPLHSpTAI-NH2 binding to Plk3 PBD (unknown origin) expressed in bacterial expression system measured after 30 mins by fluorescence polarization assay
HeLa [5] = assay: Induction of mitotic arrest in human HeLa cells assessed as rounded cells with apoptosis at 100 uM measured after 12 hrs by DAPI staining based phase contrast microscopic analysis; type: functional, cell-based
HeLa [6] = assay: Induction of mitotic arrest in human HeLa cells assessed as apperance of aberrant chromosomal morphology at 100 uM measured after 12 hrs by DAPI staining based phase contrast microscopic analysis; type: functional, cell-based
[7] = molecular target: Serine/threonine-protein kinase PLK2 (Homo sapiens, UniProt Q9NYY3); assay: Inhibition of FITC-Ahx-DPPLHSpTAI-NH2 binding to Plk2 PBD (unknown origin) expressed in bacterial expression system measured after 30 mins by fluorescence polarization assay; conditions: 0.5 h
[8] = Half life in mouse cytosol; type: ADME, subcellular
[9] = Half life in human cytosol; type: ADME, subcellular
[10] = Half life in rat cytosol; type: ADME, subcellular

Serine/threonine-protein kinase PLK3 (Homo sapiens), sequence (Q9H4B4 whole entry, looked up): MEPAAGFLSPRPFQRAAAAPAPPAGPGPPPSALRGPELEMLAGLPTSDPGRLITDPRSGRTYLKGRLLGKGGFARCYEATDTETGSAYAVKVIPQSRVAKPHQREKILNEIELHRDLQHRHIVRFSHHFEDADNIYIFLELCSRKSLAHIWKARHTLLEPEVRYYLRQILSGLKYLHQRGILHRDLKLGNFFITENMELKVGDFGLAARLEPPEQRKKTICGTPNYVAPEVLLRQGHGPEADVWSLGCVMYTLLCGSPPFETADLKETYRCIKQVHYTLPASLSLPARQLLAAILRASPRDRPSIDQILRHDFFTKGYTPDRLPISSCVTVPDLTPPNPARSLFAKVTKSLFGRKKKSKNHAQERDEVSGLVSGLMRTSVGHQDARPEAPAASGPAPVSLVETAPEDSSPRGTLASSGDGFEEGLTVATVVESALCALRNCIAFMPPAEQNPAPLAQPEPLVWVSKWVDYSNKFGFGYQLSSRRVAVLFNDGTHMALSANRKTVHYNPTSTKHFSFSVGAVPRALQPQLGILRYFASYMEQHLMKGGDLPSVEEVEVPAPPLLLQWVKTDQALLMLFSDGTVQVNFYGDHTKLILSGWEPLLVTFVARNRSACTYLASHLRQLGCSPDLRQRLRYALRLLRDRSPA
Serine/threonine-protein kinase PLK1, sequence (P53350 whole entry): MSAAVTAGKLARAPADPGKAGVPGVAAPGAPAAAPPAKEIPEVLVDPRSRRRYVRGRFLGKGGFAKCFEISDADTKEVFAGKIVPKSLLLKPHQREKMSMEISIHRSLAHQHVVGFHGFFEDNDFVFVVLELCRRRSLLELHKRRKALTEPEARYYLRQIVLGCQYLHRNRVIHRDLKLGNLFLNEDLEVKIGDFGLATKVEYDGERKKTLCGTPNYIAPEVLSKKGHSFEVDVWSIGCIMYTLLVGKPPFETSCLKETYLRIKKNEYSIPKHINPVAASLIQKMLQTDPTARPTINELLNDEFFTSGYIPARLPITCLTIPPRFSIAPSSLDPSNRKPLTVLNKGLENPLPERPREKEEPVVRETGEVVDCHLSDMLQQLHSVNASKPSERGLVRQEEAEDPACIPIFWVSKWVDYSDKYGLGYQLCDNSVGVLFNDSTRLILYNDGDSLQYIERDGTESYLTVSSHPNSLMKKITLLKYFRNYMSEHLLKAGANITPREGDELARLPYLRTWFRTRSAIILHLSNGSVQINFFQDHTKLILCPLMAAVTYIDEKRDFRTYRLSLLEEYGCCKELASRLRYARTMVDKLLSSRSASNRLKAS
Serine/threonine-protein kinase PLK2, sequence (Q9NYY3 whole entry): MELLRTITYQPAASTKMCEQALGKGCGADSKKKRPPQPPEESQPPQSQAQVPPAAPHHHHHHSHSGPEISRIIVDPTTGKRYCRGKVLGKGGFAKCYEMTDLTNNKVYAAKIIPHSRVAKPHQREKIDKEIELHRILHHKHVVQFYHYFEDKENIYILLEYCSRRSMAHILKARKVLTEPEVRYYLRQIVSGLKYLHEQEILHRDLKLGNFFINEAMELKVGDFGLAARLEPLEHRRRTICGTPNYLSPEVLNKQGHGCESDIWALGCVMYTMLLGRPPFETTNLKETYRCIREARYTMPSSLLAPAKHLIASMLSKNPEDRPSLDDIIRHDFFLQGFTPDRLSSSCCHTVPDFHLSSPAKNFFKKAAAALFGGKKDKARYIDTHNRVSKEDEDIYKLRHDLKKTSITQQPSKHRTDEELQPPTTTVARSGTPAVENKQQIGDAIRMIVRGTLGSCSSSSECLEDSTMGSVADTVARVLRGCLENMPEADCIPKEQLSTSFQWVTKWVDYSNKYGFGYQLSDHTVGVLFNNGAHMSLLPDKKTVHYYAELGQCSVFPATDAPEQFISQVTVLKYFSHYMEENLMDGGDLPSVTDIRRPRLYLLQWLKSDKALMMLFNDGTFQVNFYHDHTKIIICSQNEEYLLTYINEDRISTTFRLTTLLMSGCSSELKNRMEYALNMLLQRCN

SMILES	t1/2 [1]	solubility [2]	Papp (in vitro)	further results
O=c1c2ccc(F)cc2n2c(=S)[nH]nc2n1CCc1ccccc1	22.7 min	< 1 µg/mL	91 ×10⁻⁶ cm/s	–
CCCn1c(=O)c2ccccc2n2c(=S)n(CC(=O)c3ccccc3)nc12	–	–	–	IC50 [3]: > 50 µM
CCn1c(=O)c2ccccc2n2c(=S)[nH]nc12	> 30 min	> 36 µg/mL	427 ×10⁻⁶ cm/s	–
O=C(CN1CCOCC1)NCCCn1c(=O)c2cc(F)ccc2n2c(=S)[nH]nc12	> 30 min	> 62 µg/mL	< 1 ×10⁻⁶ cm/s	–
O=c1c2cc(F)ccc2n2c(=S)[nH]nc2n1Cc1ccccc1	> 30 min	8.3 µg/mL (≈ 25.4 µM)	841 ×10⁻⁶ cm/s	–
O=c1c2ccccc2n2c(=S)[nH]nc2n1CCC(F)(F)F	> 30 min	23.3 µg/mL (≈ 74.1 µM)	82 ×10⁻⁶ cm/s	–
CC(=O)N1CCC[C@H]1C(=O)N[C@@H](CC(C)C)C(=O)N[C@@H](Cc1cnc[nH]1)C(=O)N[C@@H](CO)C(=O)N[C@H](C(=O)O)[C@@H](C)O	–	–	–	inhibition [4]: inactive
CC(C)CCn1c(=O)c2ccccc2n2c(=S)[nH]nc12	–	8 µg/mL (≈ 27.7 µM)	–	IC50 [3]: 1.73 µM
O=c1c2cc(F)ccc2n2c(=S)[nH]nc2n1CCN1CCC(F)(F)CC1	> 30 min	20.2 µg/mL (≈ 52.7 µM)	234 ×10⁻⁶ cm/s	–
CN1CCN(CC(=O)NCCCn2c(=O)c3cc(F)ccc3n3c(=S)[nH]nc23)CC1	> 30 min	> 64 µg/mL	< 1 ×10⁻⁶ cm/s	–
O=c1c2cc(Cl)ccc2n2c(=S)[nH]nc2n1CCC(F)(F)F	> 30 min	5.1 µg/mL (≈ 14.6 µM)	257 ×10⁻⁶ cm/s	–
CC(=O)N1CCC[C@H]1C(=O)N[C@@H](CC(C)C)C(=O)N[C@@H](Cc1cnc[nH]1)C(=O)N[C@@H](CO)C(=O)N[C@H](C(=O)O)[C@@H](C)OP(=O)(O)O	–	–	–	inhibition [4]: inactive
O=c1c2ccncc2n2c(=S)[nH]nc2n1CCc1ccccc1	15.8 min	17.3 µg/mL (≈ 53.5 µM)	202 ×10⁻⁶ cm/s	–
O=c1c2cc(F)ccc2n2c(=S)[nH]nc2n1CCC(F)(F)F	> 30 min	17.3 µg/mL (≈ 52.1 µM)	117 ×10⁻⁶ cm/s	–
O=c1c2cccc(F)c2n2c(=S)[nH]nc2n1CCc1ccccc1	> 30 min	3.4 µg/mL (≈ 9.99 µM)	141 ×10⁻⁶ cm/s	–
NS(=O)(=O)CCCC(=O)NCCCn1c(=O)c2cc(F)ccc2n2c(=S)[nH]nc12	> 30 min	42.4 µg/mL (≈ 95.8 µM)	3 ×10⁻⁶ cm/s	–
O=c1c2cc(Br)ccc2n2c(=S)[nH]nc2n1CCc1ccccc1	> 30 min	< 1 µg/mL	162 ×10⁻⁶ cm/s	–
O=C(Cc1ccncc1)NCCCn1c(=O)c2cc(F)ccc2n2c(=S)[nH]nc12	> 30 min	–	< 1 ×10⁻⁶ cm/s	–
O=c1c2cc(F)ccc2n2c(=S)[nH]nc2n1CCCO	> 30 min	> 43 µg/mL	222 ×10⁻⁶ cm/s	–

SMILES	t1/2 [1]	solubility [2]	Papp (in vitro)	further results
CC(C)(C)OC(=O)N1CC(CCn2c(=O)c3cc(F)ccc3n3c(=S)[nH]nc23)C1	–	15 µg/mL (≈ 35.8 µM)	229 ×10⁻⁶ cm/s	–
CCCn1c(=O)c2cccc(F)c2n2c(SC)nnc12	–	–	–	Activity (HeLa [5]): Active; Activity (HeLa [6]): Active
O=c1c2cc(F)ccc2n2c(=S)[nH]nc2n1CCc1ccccn1	> 30 min	13 µg/mL (≈ 38.1 µM)	355 ×10⁻⁶ cm/s	–
CC(=O)Nc1ccc2c(c1)c(=O)n(CCc1ccccc1)c1n[nH]c(=S)n21	> 30 min	2.2 µg/mL (≈ 5.8 µM)	253 ×10⁻⁶ cm/s	–
O=c1c2cc(F)ccc2n2c(=S)[nH]nc2n1CCc1cccnc1	> 30 min	25.1 µg/mL (≈ 73.5 µM)	< 1 ×10⁻⁶ cm/s	–
C=CCn1c(=O)c2ccccc2n2c(S)nnc12	–	19.4 µg/mL (≈ 75.1 µM)	–	IC50 [3]: 1.31 µM
CCCCn1c(=O)c2ccccc2n2c(S)nnc12	> 30 min	8.5 µg/mL (≈ 31 µM)	77.5 ×10⁻⁶ cm/s	IC50 [3]: 1.03 µM
CC(C)(C)OC(=O)NC1CCC(C(=O)NCCCn2c(=O)c3cc(F)ccc3n3c(=S)[nH]nc23)CC1 (racemic)	24.8 min	> 77 µg/mL	330 ×10⁻⁶ cm/s	–
CC(=O)NCCCn1c(=O)c2cc(F)ccc2n2c(=S)[nH]nc12	> 30 min	> 50 µg/mL	18 ×10⁻⁶ cm/s	–
Cc1cccc(-n2c(=O)c3ccccc3n3c(S)nnc23)c1C	–	–	–	IC50 [3]: 1.85 µM
O=C(NCCCn1c(=O)c2cc(F)ccc2n2c(=S)[nH]nc12)c1ccccc1	> 30 min	21.9 µg/mL (≈ 55.1 µM)	267 ×10⁻⁶ cm/s	–
COc1cccc(CC(=O)NCCCn2c(=O)c3cc(F)ccc3n3c(=S)[nH]nc23)c1	20.1 min	–	300 ×10⁻⁶ cm/s	solubility ([2]; read-out: solubility): > 65 µg/mL
O=c1c2cc(F)ccc2n2c(=S)[nH]nc2n1CCc1ccc(Cl)cc1	> 30 min	1.2 µg/mL (≈ 3.2 µM)	< 1 ×10⁻⁶ cm/s	–
O=c1c2cc(F)ccc2n2c(=S)[nH]nc2n1CCN1CCCCC1	> 30 min	2.4 µg/mL (≈ 6.91 µM)	358 ×10⁻⁶ cm/s	–
CC(CN(C)C)n1c(=O)c2cc(F)ccc2n2c(=S)[nH]nc12 (racemic)	> 30 min	> 47 µg/mL	186 ×10⁻⁶ cm/s	–
O=c1c2cc(F)ccc2n2c(=S)[nH]nc2n1CCC1CCC(F)(F)CC1	> 30 min	< 1 µg/mL	201 ×10⁻⁶ cm/s	–
O=c1c2cc(F)ccc2n2cnnc2n1CCc1ccccc1	11.8 min	14.8 µg/mL (≈ 48 µM)	924 ×10⁻⁶ cm/s	–
O=c1c2cc(F)ccc2n2c(=S)[nH]nc2n1CCc1ccccc1	> 30 min	–	77 ×10⁻⁶ cm/s	–
COCCCn1c(=O)c2ccccc2n2c(S)nnc12	–	31.2 µg/mL (≈ 107 µM)	–	IC50 [3]: 1.75 µM

SMILES	t1/2 [1]	solubility [2]	Papp (in vitro)	further results
O=C(O)CCC(=O)NCCCn1c(=O)c2cc(F)ccc2n2c(=S)[nH]nc12	> 30 min	> 58 µg/mL	< 1 ×10⁻⁶ cm/s	–
O=c1c2cc(F)ccc2n2c(=S)[nH]nc2n1CCN1CCOCC1	> 30 min	> 52 µg/mL	67 ×10⁻⁶ cm/s	–
CCOCCCn1c(=O)c2ccccc2n2c(S)nnc12	–	15.5 µg/mL (≈ 50.9 µM)	–	IC50 [3]: 1.68 µM
NCCCn1c(=O)c2cc(F)ccc2n2c(=S)[nH]nc12.O=C(O)C(F)(F)F	> 30 min	> 43 µg/mL	< 1 ×10⁻⁶ cm/s	–
O=C(NCCCn1c(=O)c2cc(F)ccc2n2c(=S)[nH]nc12)C1CCCC1	> 30 min	> 58 µg/mL	155 ×10⁻⁶ cm/s	–
O=c1c2cc(F)ccc2n2c(=S)[nH]nc2n1CC1CC1	> 30 min	16.2 µg/mL (≈ 55.8 µM)	46 ×10⁻⁶ cm/s	inhibition [4]: inactive; inhibition (INH) [7]: Not Active
CN(C)CCn1c(=O)c2cc(F)ccc2n2c(=S)[nH]nc12	> 30 min	> 45 µg/mL	117 ×10⁻⁶ cm/s	–
CN(C)c1ccc2c(c1)c(=O)n(CCc1ccccc1)c1n[nH]c(=S)n21	13.3 min	< 1 µg/mL	356 ×10⁻⁶ cm/s	–
O=C(NCCCn1c(=O)c2cc(F)ccc2n2c(=S)[nH]nc12)C1CCOCC1	–	< 1 µg/mL	8 ×10⁻⁶ cm/s	–
Nc1nnc2n(CCc3ccccc3)c(=O)c3cc(F)ccc3n12	29.4 min	2.2 µg/mL (≈ 6.8 µM)	885 ×10⁻⁶ cm/s	–
CCCn1c(=O)c2cc(F)ccc2n2c(SC)nnc12	–	–	–	Activity (HeLa [5]): Active; t1/2 [8]: <= 120 min; Activity (HeLa [6]): Active; t1/2 [9]: <= 120 min; t1/2 [10]: <= 120 min
CC(C)(C)OC(=O)NCCCCCC(=O)NCCCn1c(=O)c2cc(F)ccc2n2c(=S)[nH]nc12	> 30 min	> 75 µg/mL	405 ×10⁻⁶ cm/s	–
CNC(=S)N1CN(CCc2ccccc2)C(=O)c2cc(F)ccc21	2.2 min	4.5 µg/mL (≈ 13.1 µM)	161 ×10⁻⁶ cm/s	–
NCCCCCC(=O)NCCCn1c(=O)c2cc(F)ccc2n2c(=S)[nH]nc12	> 30 min	31.8 µg/mL (≈ 78.2 µM)	–	–
CCCCCn1c(=O)c2ccccc2n2c(S)nnc12	–	4.2 µg/mL (≈ 14.6 µM)	–	IC50 [3]: 1.97 µM
COc1ccccc1CC(=O)NCCCn1c(=O)c2cc(F)ccc2n2c(=S)[nH]nc12	16.1 min	> 65 µg/mL	–	–
CC(C)(C)[C@H]1CC[C@H](C(=O)NCCCn2c(=O)c3cc(F)ccc3n3c(=S)[nH]nc23)CC1	> 30 min	1.1 µg/mL (≈ 2.39 µM)	–	–
CN1CCN(CCn2c(=O)c3cc(F)ccc3n3c(=S)[nH]nc23)CC1	> 30 min	> 54 µg/mL	–	–
NC1CCC(C(=O)NCCCn2c(=O)c3cc(F)ccc3n3c(=S)[nH]nc23)CC1 (racemic)	> 30 min	38.8 µg/mL (≈ 92.7 µM)	–	–
